Assay results: patent US9394544B2, “Ameliorating oxidative stress in neurodegenerative disease via Nox1 targeting” (University of Central Florida Research Foundation, Inc., priority 2013, dated 2016)

Test system: SN dopaminergic neurons
Assay: Stereological count of TH-positive dopaminergic neurons in the SN, PQ rat model
Type: in vivo
Conditions: vector+PQ group, or Nox1 shRNA+PQ group
Experimental: The experiments were performed on rats, in accordance with the National Institutes for Health Guide for the Care and Use of Laboratory Animals. All procedures were approved by the local Animal Care and Use Committee. Male Wistar rats (8-10 weeks; Charles River) were maintained in a temperature/humidity-controlled environment under a 12 h light/dark cycle with ad libitum access to food and water. As depicted in FIG. 13A, each animal received four intraperitoneal injections, separated by 1 d, of either vehicle (saline) or PQ (10 mg/kg body weight; b.w.), according to a previously published dose (Manning-Bog et al., 2002; Harraz et al., 2008; Cristovao et al., 2009). All animals were weighed at day 1 and 12. In the studies using the paradigm depicted in FIG. 13A, 4 weeks before starting PQ intraperitoneal injection, animals were stereotaxically injected with various viral constructs at the right SN using the following coordinates: mediolateral, +2.0; anteroposterior, −5.3; dorsoventral, −6.8. […]
Following perfusion with saline and 4% PFA in PBS, brains were removed, and forebrain and midbrain blocks were immersion fixed in 4% PFA and cryoprotected in sucrose. […] The numbers of TH-immunoreactive cells in the SN were counted using an optical fractionator. […]

C[n+]1ccc(-c2cc[n+](C)cc2)cc1 [PQ, paraquat]
dopaminergic neuronal loss (stereological count of TH-positive neurons): 37%
